Source: patent US20130102618A1, “3-AMINO-5,6-DIHYDRO-1H-PYRAZIN-2-ONE DERIVATIVES USEFUL FOR THE TREATMENT OF ALZHEIMER'S DISEASE AND OTHER FORMS OF DEMENTIA” (JANSSEN PHARMACEUTICA NV, priority 2010, published 2013)

How the values were obtained:
[1] = molecular target: T1, recombinant BACE1 protein (Homo sapiens, UniProt P56817); assay: Biochemical FRET based assay; settings: recombinant BACE1 1 μg/ml, APP-derived Swedish-mutation peptide substrate, 120 minutes, room temperature, pH 5.0; read-out: Biochemical FRET based assay pIC50 (converted)
T1 construct: recombinant BACE1 protein in a final concentration of 1 μg/ml
Excerpt: This assay is a Fluorescence Resonance Energy Transfer Assay (FRET) based assay. The substrate for this assay is an APP derived 13 amino acids peptide that contains the ‘Swedish’ Lys-Met/Asn-Leu mutation of the amyloid precursor protein (APP) β-secretase cleavage site. This substrate also contains two fluorophores: (7-methoxy-coumarin-4-yl)acetic acid (Mca) is a fluorescent donor with excitation wavelength at 320 nm and emission at 405 nm and 2,4-Dinitrophenyl (Dnp) is a proprietary quencher acceptor. […] Upon cleavage by BACE1, the fluorophore Mca is separated from the quenching group Dnp, restoring the full fluorescence yield of the donor. The increase in fluorescence is linearly related to the rate of proteolysis (Koike H et al. J Biochem. 1999, 126, 235-42).
Briefly in a 384-well format recombinant BACE1 protein in a final concentration of 1 μg/ml is incubated for 120 minutes at room temperature with 10 μm substrate in incubation buffer (40 mM Citrate buffer pH 5.0, 0.04% PEG, 4% DMSO) in the absence or presence of compound. Next the amount of proteolysis is directly measured by fluorescence measurement at T=0 and T=120 (excitation at 320 nm and emission at 405 nm). Results are expressed in RFU, as difference between T120 and T0.
A best-fit curve is fitted by a minimum sum of squares method to the plot of % Controlmin versus compound concentration. From this an […] value (inhibitory concentration causing 50% inhibition of activity) can be obtained.

[2] = system: Aβ42 produced and secreted into the medium of human neuroblastoma SKNBE2 cells; assay: Cellular αlisa assay in SKNBE2 cells, Aβ42; type: cell-based; settings: SKNBE2 expressing wild type hAPP695, incubated for 18 hours, read-out: Cellular αlisa assay in SKNBE2 cells Aβ42 pIC50 (converted)
Protocol: (§1) In two αlisa assays the levels of Aβtotal and Aβ42 produced and secreted into the medium of human neuroblastoma SKNBE2 cells are quantified. The assay is based on the human neuroblastoma SKNBE2 expressing the wild type Amyloid Precursor Protein (hAPP695). The compounds are diluted and added to these cells, incubated for 18 hours and then measurements of Aβ42 and Aβtotal are taken. Aβtotal and Aβ42 are measured by sandwich αlisa. αlisa is a sandwich assay using biotinylated antibody AbN/25 attached to streptavidin coated beads and antibody Ab4G8 or cAb42/26 conjugated acceptor beads for the detection of Aβtotal and Aβ42 respectively. In the presence of Aβtotal or Aβ42, the beads come into close proximity. The excitation of the Donor beads provokes the release of singlet oxygen molecules that triggers a cascade of energy transfer in the Acceptor beads, resulting in light emission. Light emission is measured after 1 hour incubation (excitation at […] and emission at 615 nm).
(§2) A best-fit curve is fitted by a minimum sum of squares method to the plot of % Controlmin versus compound concentration. From this an IC50 value (inhibitory concentration causing 50% inhibition of activity) can be obtained.

[3] = system: Aβtotal produced and secreted into the medium of human neuroblastoma SKNBE2 cells; assay: Cellular αlisa assay in SKNBE2 cells, Aβtotal; type: cell-based; settings: SKNBE2 expressing wild type hAPP695, incubated for 18 hours, read-out: Cellular αlisa assay in SKNBE2 cells Aβtotal pIC50 (converted)
Protocol: as §1, §2

T1 sequence (P56817 46-501): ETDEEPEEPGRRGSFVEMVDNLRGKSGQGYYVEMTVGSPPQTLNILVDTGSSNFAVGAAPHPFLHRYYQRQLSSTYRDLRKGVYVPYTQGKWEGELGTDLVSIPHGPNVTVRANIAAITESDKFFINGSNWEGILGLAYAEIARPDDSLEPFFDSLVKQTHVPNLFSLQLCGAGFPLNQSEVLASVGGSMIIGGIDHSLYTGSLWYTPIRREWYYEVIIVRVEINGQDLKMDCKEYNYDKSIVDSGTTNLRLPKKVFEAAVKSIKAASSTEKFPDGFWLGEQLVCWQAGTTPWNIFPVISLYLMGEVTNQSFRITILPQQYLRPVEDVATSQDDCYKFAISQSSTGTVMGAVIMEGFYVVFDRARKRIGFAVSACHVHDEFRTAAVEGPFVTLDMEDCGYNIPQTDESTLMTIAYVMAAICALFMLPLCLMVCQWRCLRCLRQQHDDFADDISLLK

SMILES	IC50 [1] [µM]	IC50 [2] [µM]	IC50 [3] [µM]	melting point [°C]
CN1CC(C)(c2cccc(-c3cccc(C#N)c3)c2)N=C(N)C1=O (stereo not drawn) [compound 1]	27.5	7.08	5.75	218.6
COc1cncc(-c2cccc(C3(C)CN(C)C(=O)C(N)=N3)c2)c1 (stereo not drawn) [compound 2]	15.5	7.94	5.75	230.4
CN1CC(C)(c2cccc(NC(=O)c3ccc(Cl)cn3)c2)N=C(N)C1=O (stereo not drawn) [compound 3]	0.457	0.115	0.107	
CN1CC(C)(c2cc(-c3ccccc3)c(F)cc2F)N=C(N)C1=O (stereo not drawn) [compound 6]	> 30.2	> 10	> 10	141.5
COc1cncc(-c2cc(C3(C)CN(C)C(=O)C(N)=N3)c(F)cc2F)c1 (stereo not drawn) [compound 7]	7.59	4.47	4.07	180.5
CN1CC(C)(c2cc(-c3cncnc3)c(F)cc2F)N=C(N)C1=O (stereo not drawn) [compound 10]	> 30.2	> 10	> 10	145.2
CN1CC(C)(c2cccc(-c3cncnc3)c2)N=C(N)C1=O (stereo not drawn) [compound 16]	> 30.2	> 10	> 10	234.6
